Active and inactive are the calls of the source. No cut-off for these calls is given here.
Key:
Format in all cases: functional, cell-based
[1] = Cytotoxicity against human C4-2B cells after 72 hrs by MTT assay; settings: LNCaP C4-2B
PC-3 [2] = test: Cytotoxicity against human PC3 cells after 72 hrs by MTT assay
LNCaP = test: Cytotoxicity against human LNCAP cells after 72 hrs by MTT assay
CWR22R = test: Cytotoxicity against human 22Rv1 cells after 72 hrs by MTT assay; settings: 22Rv1, 72 h
[3] = Cytotoxicity against human MDA PCa 2b cells after 72 hrs by MTT assay
PC-3 [4] = test: Cytotoxicity against human PC3 cells at 150 uM after 72 hrs by MTT assay
[5] = Homo sapiens, PC-3, 72 h, read-out: IC50

Row | Compound | IC50 [1] [µM] | IC50 (PC-3 [2]; [5]) [µM] | IC50 (LNCaP) [µM] | IC50 (CWR22R) [µM] | IC50 [3] [µM] | IC50 (PC-3 [2]; pc-3) | Activity (PC-3 [4])
1 | COc1cc(/C=C/C(O)=C/C(=O)/C=C/C2=C(C)CCCC2(C)C)ccc1O | 44.3 | 15.8 | 20.6 | 10.6 | – | – | –
2 | COc1ccc(/C=C/C(O)=C/C(=O)/C=C/C2=C(C)CCCC2(C)C)cc1O | 23.1 | 38.3 | 25.9 | – | – | – | –
3 | CC1=C(/C=C/C(=O)/C(=C\c2ccc(O)cc2)C(=O)/C=C/c2ccc(O)cc2)C(C)(C)CCC1 | 4 | 6.7 | 4.5 | 4.7 | 4.7 | – | –
4 | CCn1c2ccccc2c2cc(/C=C(\C(=O)/C=C/C3=C(C)CCCC3(C)C)C(=O)/C=C/c3ccc(O)c(OC)c3)ccc21 | 2.3 | 7 | 2.3 | 2.4 | 8.1 | – | –
5 | COc1cc(/C=C/C(=O)CC(=O)/C=C/c2ccc(O)c(OC)c2)ccc1O [CURCUMIN] | 6.1 | 16.8 | 8.5 | 18.3 | – | – | –
6 | COc1cc(/C=C/C(=O)/C(=C/c2ccc3ccccc3n2)C(=O)/C=C/C2=C(C)CCCC2(C)C)ccc1O | 5.3 | 15.2 | 8.5 | 5.1 | – | – | –
7 | COc1cc(/C=C(\C(=O)/C=C/C2=C(C)CCCC2(C)C)C(=O)/C=C/c2cc(OC)c(O)c(OC)c2)cc(OC)c1O | 8.5 | 12.5 | 8.7 | 17.6 | 15.3 | – | –
8 | CCOc1ccc(/C=C(\C(=O)/C=C/C2=C(C)CCCC2(C)C)C(=O)/C=C/c2ccc(OCC)c(OCC)c2)cc1OCC | 4.5 | 14.1 | 14.9 | 9.3 | 6.8 | – | –
9 | CC(=O)/C=C/C1=C(C)CCCC1(C)C [BETA-IONONE] | – | – | 151 | – | – | Not Active | inactive
10 | COc1cc(/C=C/C(O)=C/C(=O)/C=C/C2=C(C)CCCC2(C)C)cc(OC)c1OC | 11.9 | > 50 | 21.4 | 17.1 | – | – | –
11 | COc1ccc(/C=C/C(O)=C/C(=O)/C=C/C2=C(C)CCCC2(C)C)cn1 | – | 52.2 | 25.1 | – | – | – | –
12 | COc1cc(/C=C/C(O)=C/C(=O)/C=C/C2=C(C)CCCC2(C)C)cc(OC)c1O | 9.8 | 26.7 | 6.2 | 12.2 | – | – | –

— ChEMBL document CHEMBL1153534, “Design and synthesis of androgen receptor antagonists with bulky side chains for overcoming antiandrogen resistance” (J Med Chem, 2009)
